System: HBV
Experiment: HepAD38 antiviral assay: reduction of viral product accumulation (virion DNA by qPCR, HBsAg or HBeAg by ELISA)
Format: cell-based
Conditions: Hepatitis B virus, 120 h; HepAD38 cells, five days after compound addition; 50% reduction of viral product accumulation relative to no drug controls; read-out: HepAD38 EC50
Description: Methods: HepAD38 cells are maintained as previously reported (Ladner et al, Antimicrob. Agents Chemother. 1997, […], 1715). Briefly, cells are passaged upon attaining confluency in DMEM/F12 media in the presence of 10% FBS, Penn/Strep, 250 μg/mL G418, and 1 ug/ml tetracycline. Novel compounds are screened by first washing cells three times with PBS to remove tetracycline, and plating in 96 well plates at 35,000 cells/well. Compounds dissolved in DMSO are then diluted 1:200 into wells containing cells. Five days after compound addition, material is harvested for analysis. For an extended 8 day analysis, cells are plated and treated as described above, but media and compound are refreshed on d2 and d5 post initial treatment.
On harvest day, virion DNA is obtained by lysing with Sidestep Lysis and Stabilization Buffer and then quantified via quantitative real time PCR. Commercially available ELISA kits are used to quantitate the viral proteins HBsAg (Alpco) or HbeAg (US Biological) by following the manufacturer's recommended protocol after diluting samples to match the linear range of their respective assays. Irrespective of readout, compound concentrations that reduce viral product accumulation in the cell lysates or supernatants by 50% relative to no drug controls (EC50) are reported; EC50 ranges are as follows: A<1 μM; B 1-10 μM; C>10 μM.

| Structure (SMILES) | EC50 |
| --- | --- |
| O=S(=O)(c1cc(-c2nc(-c3ccc(Br)c(F)c3)c[nH]2)ccc1Cl)N1CCN(c2ccncc2)CC1 [Example 196] | < 1000 nM |
| O=S(=O)(c1cc(-c2nc(-c3ccc(Br)c(F)c3)c[nH]2)ccc1Cl)N1CCC[C@@H](O)[C@H](O)C1 [Example 277] | < 1000 nM |
| COC(=O)N1C[C@@H]2[C@@H](CNS(=O)(=O)c3cc(-c4ncc(-c5ccc(Br)c(F)c5)[nH]4)ccc3Cl)[C@@H]2C1 [Example 272] | 1000 to 10000 nM |
| N#Cc1ccc(-c2c[nH]c(-c3ccc(Cl)c(S(=O)(=O)N4CCC(O)CC4)c3)n2)cc1Cl [Example 149] | < 1000 nM |
| O=S(=O)(c1cc(-c2nc(-c3ccc(C(F)(F)F)cc3)c[nH]2)ccc1Cl)N1CCC(O)CC1 [Example 99] | > 10000 nM |
| C[C@@H]1CN(S(=O)(=O)c2cc(-c3ncc(-c4ccc(Br)c(F)c4)[nH]3)ccc2Cl)CC[C@H]1O [Example 208] | < 1000 nM |
| COc1ccc(-c2c[nH]c(-c3ccc(Cl)c(S(=O)(=O)N4CCC(O)CC4)c3)n2)cc1Cl [Example 202] | > 10000 nM |
| CC(C)(C)OC(=O)NC[C@@H]1[C@H]2CN(S(=O)(=O)c3cc(-c4ncc(-c5ccc(F)c(Br)c5)[nH]4)ccc3Cl)C[C@@H]12 [Example 167] | 1000 to 10000 nM |
| O=S(=O)(N[C@H]1C[C@@H](O)C1)c1cc(-c2ncc(-c3ccc(Br)c(F)c3)[nH]2)ccc1Cl [Example 211] | < 1000 nM |
| CC(C)(C)OC(=O)NCCCCCCNS(=O)(=O)c1cc(-c2nc(-c3ccc(Br)c(F)c3)c[nH]2)ccc1Cl [Example 242] | < 1000 nM |
| N#Cc1ccc(-c2c[nH]c(-c3ccc(Cl)c(S(=O)(=O)N4CCC(O)CC4)c3)n2)cc1C1CC1 [Example 170] | < 1000 nM |
| COC(=O)NCCCCNS(=O)(=O)c1cc(-c2nc(-c3ccc(Br)c(F)c3)c[nH]2)ccc1Cl [Example 173] | < 1000 nM |
| COC(=O)NC(C)CCNS(=O)(=O)c1cc(-c2nc(-c3ccc(Br)c(F)c3)c[nH]2)ccc1Cl (stereo not drawn) [Example 188] | < 1000 nM |
| COc1ccccc1-c1c[nH]c(-c2ccc(Cl)c(S(=O)(=O)N3CCC(O)CC3)c2)n1 [Example 88] | 1000 to 10000 nM |
| O=S(=O)(c1cc(-c2nc(-c3ccc(Br)c(F)c3)c[nH]2)ccc1Cl)N1C[C@@H](O)C[C@H]2C[C@H]2C1 [Example 34] | < 1000 nM |
| O=S(=O)(c1cc(-c2nc(-c3ccc(Br)c(F)c3)c[nH]2)ccc1Cl)N1CCN(c2ccc(F)cn2)CC1 [Example 219] | < 1000 nM |
| COC(=O)NCCCCCNS(=O)(=O)c1cc(-c2nc(-c3ccc(Br)c(F)c3)c[nH]2)ccc1Cl [Example 175] | < 1000 nM |
| O=S(=O)(c1cc(-c2nc(-c3ccc(Br)c(F)c3)c[nH]2)ccc1F)N1CCC(O)CC1 [Example 267] | < 1000 nM |
| O=S(=O)(c1cc(-c2nc(-c3ccc(Br)c(F)c3)c[nH]2)ccc1Cl)N1CCC[C@H](O)[C@H](O)C1 [Example 263] | < 1000 nM |
| CC(C)(C)OC(=O)NCC1CN(S(=O)(=O)c2cc(-c3ncc(-c4ccc(F)c(Br)c4)[nH]3)ccc2Cl)C1 [Example 182] | < 1000 nM |
| COC(=O)N(C)CCCNS(=O)(=O)c1cc(-c2nc(-c3ccc(Br)c(F)c3)c[nH]2)ccc1Cl [Example 178] | < 1000 nM |

| Structure (SMILES) | EC50 |
| --- | --- |
| O=S(=O)(c1cc(-c2nc(-c3ccc(C4CC4)c(C(F)(F)F)c3)c[nH]2)ccc1Cl)N1CCC(O)CC1 [Example 171] | < 1000 nM |
| C[C@H]1CCN(S(=O)(=O)c2cc(-c3nc(-c4ccc(Br)c(F)c4)c[nH]3)ccc2Cl)C[C@@H]1O [Example 245] | < 1000 nM |
| O=S(=O)(c1cc(-c2nc(-c3ccc(Br)c(F)c3)c[nH]2)ccc1Cl)N1CC(O)C(CO)C1 (stereo not drawn) [Example 255] | < 1000 nM |
| O=S(=O)(c1cc(-c2nc(-c3ccc4ocnc4c3)c[nH]2)ccc1Cl)N1CCC(O)CC1 [Example 76] | > 10000 nM |
| O=S(=O)(NC[C@@H](O)CO)c1cc(-c2ncc(-c3ccc(Br)c(F)c3)[nH]2)ccc1Cl [Example 214] | < 1000 nM |
| O=S(=O)(c1cc(-c2nc(-c3cc(F)cc(F)c3)c[nH]2)ccc1Cl)N1CCC(O)CC1 [Example 86] | 1000 to 10000 nM |
| O=S(=O)(c1cc(-c2ncc(-c3ccc(Br)c(F)c3)[nH]2)ccc1Cl)N1CC[C@H](O)[C@H](O)C1 [Example 230] | < 1000 nM |
| O=S(=O)(c1cc(-c2nc(-c3ccc(Br)c(F)c3)c[nH]2)ccc1Cl)N1CC[C@H](CO)C1 [Example 254] | < 1000 nM |
| NS(=O)(=O)c1cc(-c2nc(-c3ccc(Br)c(F)c3)c[nH]2)ccc1Cl [Example 153] | 1000 to 10000 nM |
| O=S(=O)(c1cc(-c2nc(-c3ccc(Br)c(F)c3)c[nH]2)ccc1Cl)N1CC[C@@H](O)[C@@H](O)CC1 [Example 19] | < 1000 nM |
| O=S(=O)(c1cc(-c2nc(-c3ccc(Br)c(F)c3)c[nH]2)ccc1Cl)N1CC[C@@H](O)[C@H](O)CC1 [Example 20] | < 1000 nM |
| O=S(=O)(c1cc(-c2ncc(-c3ccc(Br)c(F)c3)[nH]2)ccc1Cl)N1C[C@@H](O)[C@H](O)C1 [Example 229] | < 1000 nM |
| O=S(=O)(c1cc(-c2nc(-c3ccc(Cl)c(C4CC4)c3)c[nH]2)ccc1Cl)N1CCC(O)CC1 [Example 17] | < 1000 nM |
| COC(=O)NC[C@@H]1[C@H]2CN(S(=O)(=O)c3cc(-c4ncc(-c5ccc(F)c(Br)c5)[nH]4)ccc3Cl)C[C@@H]12 [Example 168] | < 1000 nM |
| COC(=O)NC1(C(=O)NCCCNS(=O)(=O)c2cc(-c3nc(-c4ccc(Br)c(F)c4)c[nH]3)ccc2Cl)CC1 [Example 192] | < 1000 nM |
| COc1ccc(-c2c[nH]c(-c3ccc(Cl)c(S(=O)(=O)N4CCC(O)CC4)c3)n2)cc1 [Example 98] | 1000 to 10000 nM |
| COC(=O)NC1CN(S(=O)(=O)c2cc(-c3ncc(-c4ccc(Br)c(F)c4)[nH]3)ccc2Cl)C1 [Example 273] | < 1000 nM |
| O=S(=O)(NCCCNc1ncco1)c1cc(-c2nc(-c3ccc(Br)c(F)c3)c[nH]2)ccc1Cl [Example 237] | < 1000 nM |
| O=S(=O)(c1cc(-c2nc(-c3ccc(Br)c(F)c3)c[nH]2)ccc1Cl)N1CCN(c2ccc(Cl)cn2)CC1 [Example 281] | < 1000 nM |
| CC(C)(O)C1CN(S(=O)(=O)c2cc(-c3ncc(-c4ccc(Br)c(F)c4)[nH]3)ccc2Cl)C1 [Example 210] | < 1000 nM |
| O=S(=O)(c1cc(-c2ncc(-c3ccc(Br)c(F)c3)[nH]2)ccc1Cl)N1CCC[C@H](CO)C1 [Example 262] | < 1000 nM |

| Structure (SMILES) | EC50 |
| --- | --- |
| COC(=O)NCCCCCCNS(=O)(=O)c1cc(-c2nc(-c3ccc(Br)c(F)c3)c[nH]2)ccc1Cl [Example 241] | < 1000 nM |
| O=S(=O)(c1cc(-c2nc(-c3ccc(Br)c(F)c3)c[nH]2)ccc1Cl)N1C[C@H](O)CC[C@@H](O)C1 [Example 283] | < 1000 nM |
| O=S(=O)(NC1CC(O)C1)c1cc(-c2ncc(-c3ccc(Br)c(F)c3)[nH]2)ccc1Cl (stereo not drawn) [Example 223] | 1000 to 10000 nM |
| O=S(=O)(c1cc(-c2nc(-c3ccccc3O)c[nH]2)ccc1Cl)N1CCC(O)CC1 [Example 159] | 1000 to 10000 nM |
| CC(C)(O)CNS(=O)(=O)c1cc(-c2ncc(-c3ccc(Br)c(F)c3)[nH]2)ccc1Cl [Example 224] | < 1000 nM |
| O=S(=O)(c1cc(-c2nc(-c3cccs3)c[nH]2)ccc1Cl)N1CCC(O)CC1 [Example 70] | 1000 to 10000 nM |
| N#Cc1ccc(-c2c[nH]c(-c3ccc(Cl)c(S(=O)(=O)N4CCC(O)CC4)c3)n2)cc1C(F)(F)F [Example 155] | < 1000 nM |
| O=C(c1ccccc1)N1CCN(S(=O)(=O)c2cc(-c3nc(-c4ccc(Br)c(F)c4)c[nH]3)ccc2Cl)CC1 [Example 165] | 1000 to 10000 nM |
| COC(=O)NCCCN(C)S(=O)(=O)c1cc(-c2nc(-c3ccc(Br)c(F)c3)c[nH]2)ccc1Cl [Example 190] | < 1000 nM |
| O=S(=O)(c1cc(-c2nc(-c3ccc(Br)c(F)c3)c[nH]2)ccc1Cl)N1CCN(c2ncccc2Cl)CC1 [Example 279] | < 1000 nM |
| CC(C)(C)OC(=O)NCCCCNS(=O)(=O)c1cc(-c2nc(-c3ccc(Br)c(F)c3)c[nH]2)ccc1Cl [Example 174] | < 1000 nM |
| O=S(=O)(c1cc(-c2nc(-c3ccc(Br)c(F)c3)c[nH]2)ccc1Cl)N1CC=C(c2ccccn2)CC1 [Example 221] | 1000 to 10000 nM |
| O=S(=O)(c1cc(-c2ncc(-c3ccc(Br)c(F)c3)[nH]2)ccc1Cl)N1CC[C@H](O)[C@@H](C(F)(F)F)C1 [Example 270] | < 1000 nM |
| N#CCCCCNS(=O)(=O)c1cc(-c2nc(-c3ccc(Br)c(F)c3)c[nH]2)ccc1Cl [Example 191] | < 1000 nM |
| CC(C)(C)OC(=O)N[C@H]1C[C@H](NS(=O)(=O)c2cc(-c3nc(-c4ccc(Br)c(F)c4)c[nH]3)ccc2Cl)C1 [Example 198] | < 1000 nM |
| CC(C)(O)CCNS(=O)(=O)c1cc(-c2ncc(-c3ccc(Br)c(F)c3)[nH]2)ccc1Cl [Example 225] | < 1000 nM |
| O=S(=O)(c1cc(-c2nc(-c3ccc(Br)c(F)c3)c[nH]2)ccc1Cl)N1C[C@H](O)C[C@@H]2C[C@@H]2C1 [Example 275] | < 1000 nM |
| [2H]C([2H])([2H])Oc1ccc(-c2c[nH]c(-c3ccc(Cl)c(S(=O)(=O)N4CCC(O)CC4)c3)n2)cc1 [Example 217] | 1000 to 10000 nM |
| O=S(=O)(c1cc(-c2nc(-c3ccc(Br)c(F)c3)c[nH]2)ccc1Cl)N1CCN(c2cc(Cl)ccn2)CC1 [Example 280] | < 1000 nM |
| Cc1ccc(-c2c[nH]c(-c3ccc(Cl)c(S(=O)(=O)N4CCC(O)CC4)c3)n2)cc1 [Example 96] | 1000 to 10000 nM |
| COC(=O)NCC(O)CNS(=O)(=O)c1cc(-c2nc(-c3ccc(Br)c(F)c3)c[nH]2)ccc1Cl (stereo not drawn) [Example 185] | < 1000 nM |

Source: patent publication US10442788B2, “Hepatitis B antiviral agents” (ENANTA PHARMACEUTICALS, INC., priority 2015, dated 2019)
